Laboratory results taken from patent US20130302442A1, “METHODS OF USING (4S,4AS,5AR,12AS)-4-DIMETHYLAMINO-3,10,12,12A-TETRAHYDROXY-7-[(METHOXY(METHYL)AMINO)-METHYL]-1,11-DIOXO-1,4,4A,5,5A,6,11,12A-OCTAHYDRO-NAPHTHACENE-2-CARBOXYLIC ACID AMIDE” (priority 2012, published 2013).
In brackets after ≈: the same amount, converted by molar mass. Where two headings read alike, the source gives them in different places.

Tests used:
Bifidobacterium bifidum = assay: In vitro MIC testing against anaerobic bacteria; assay type: cell-based; conditions: ATCC15696; Bifidobacterium bifidum 3965, ATCC 15696
Bifidobacterium brevi = assay: In vitro MIC testing against anaerobic bacteria; assay type: cell-based; conditions: ATCC15698; Bifidobacterium brevi 3967, ATCC 15698
Bifidobacterium infantis = assay: In vitro MIC testing against anaerobic bacteria; assay type: cell-based; conditions: ATCC15702; Bifidobacterium infantis 3966, ATCC 15702
Bifidobacterium longum = assay: In vitro MIC testing against anaerobic bacteria; assay type: cell-based; conditions: ATCC15707; Bifidobacterium longum 3968, ATCC 15707
Clostridium perfringens = assay: microbe, parasite or virus in culture; assay type: cell-based
Clostridium difficile = assay: In vitro MIC testing against anaerobic bacteria; assay type: cell-based
[1] = test system: Lactobacillus acidophilus; assay: In vitro MIC testing against anaerobic bacteria; assay type: cell-based; conditions: Lactobacillus acidophilus 0681
Lactobacillus casei = assay: In vitro MIC testing against anaerobic bacteria; assay type: cell-based; conditions: Lacticaseibacillus casei, ATCC393; Lactobacillus casei 1722, ATCC 393
Lactobacillus plantarum = assay: In vitro MIC testing against anaerobic bacteria; assay type: cell-based; conditions: Lactiplantibacillus plantarum, ATCC39268; Lactobacillus plantarum 2791, ATCC 39268
[2] = test system: Peptostreptococcus micros; assay: In vitro MIC testing against anaerobic bacteria; assay type: cell-based; conditions: Parvimonas micra, read-out: MIC
[3] = test system: Streptococcus intermedius; assay: In vitro MIC testing against anaerobic bacteria; assay type: cell-based; conditions: ATCC27335; Streptococcus intermedius 1203, ATCC 27335
[4] = test system: Bacteroides thetaiotaomicron; assay: In vitro MIC testing against anaerobic bacteria; assay type: cell-based
Bacteroides vulgatus = assay: In vitro MIC testing against anaerobic bacteria; assay type: cell-based
Eikenella corrodens = assay: In vitro MIC testing against anaerobic bacteria; assay type: cell-based; conditions: ATCC43278; Eikenella corrodens 1206, ATCC 43278; read-out: MIC
[5] = test system: Fusobacterium necrophorum; assay: In vitro MIC testing against anaerobic bacteria; assay type: cell-based; conditions: ATCC25286; Fusobacterium necrophorum 3963, ATCC 25286; read-out: MIC
Fusobacterium nucleatum = assay: In vitro MIC testing against anaerobic bacteria; assay type: cell-based; conditions: ATCC25586; Fusobacterium nucleatum 3962, ATCC 25586; read-out: MIC
[6] = test system: Porphyromonas asaccharolytica; assay: In vitro MIC testing against anaerobic bacteria; assay type: cell-based
[7] = test system: Prevotella melaninogenica; assay: In vitro MIC testing against anaerobic bacteria; assay type: cell-based
Veillonella parvula = assay: In vitro MIC testing against anaerobic bacteria; assay type: cell-based; conditions: ATCC17745; Veillonella parvula 1272, ATCC 17745
P. granulosum = assay: In vitro MIC testing, antibacterial spectrum of activity; assay type: cell-based; conditions: P. granulosum [clinical isolates] (3 isolates)
P. avidum = assay: as above; assay type: cell-based; conditions: P. avidum [clinical isolates] (4 isolates)
S. epidermidis = assay: as above; assay type: cell-based, Staphylococcus epidermidis; conditions: for MIC50 / MIC90: Staphylococcus epidermidis; for MIC50: read-out: MIC50; for MIC90: read-out: MIC90
S. pneumoniae = assay: as above; assay type: cell-based, Streptococcus pneumoniae
S. pyogenes = assay: as above; assay type: cell-based
S. agalactiae = assay: as above; assay type: cell-based
S. haemolyticus = assay: as above; assay type: cell-based; conditions: S. haemolyticus (33 isolates)
[8] = test system: Streptococcus spp. [Group C]; assay: as above; assay type: cell-based; conditions: Streptococcus spp. [Group C] (30 isolates)
E. faecalis = assay: as above; assay type: cell-based
E. faecium = assay: as above; assay type: cell-based; conditions: for MIC / MIC50 / MIC90: Enterococcus faecium; for MIC50: read-out: MIC50; for MIC90: read-out: MIC90
E. coli = assay: as above; assay type: cell-based; conditions: E. coli [tetS] (7 isolates)
K. pneumoniae = assay: as above; assay type: cell-based
[9] = S. epidermidis [MRSE] (32 isolates)
[10] = S. epidermidis [MSSE] (31 isolates)
[11] = Klebsiella pneumoniae, K. pneumoniae (31 isolates)

Work on `C[C@H]1c2cccc(O)c2C(=O)C2=C(O)[C@]3(O)C(=O)C(C(N)=O)=C(O)[C@@H](N(C)C)[C@@H]3[C@@H](O)[C@@H]21` [Doxycycline, doxycycline] yielded an MIC (Bifidobacterium bifidum) of 0.5 µg/mL (≈ 1.13 µM), an MIC (Bifidobacterium brevi) of 0.5 µg/mL (≈ 1.13 µM) and an MIC (Bifidobacterium infantis) of 0.5 µg/mL (≈ 1.13 µM). For the same compound, the MIC (Bifidobacterium longum) was 1 µg/mL (≈ 2.25 µM), the MIC (Clostridium perfringens) was 16 µg/mL (≈ 36 µM) and the MIC (Clostridium difficile; Clostridioides difficile) was 0.06 µg/mL (≈ 0.135 µM). The MIC (Clostridium difficile; Clostridium difficile 3584) was 0.06 µg/mL (≈ 0.135 µM), the MIC [1] was 2 µg/mL (≈ 4.5 µM) and the MIC (Lactobacillus casei) was 2 µg/mL (≈ 4.5 µM). It also gave an MIC (Lactobacillus plantarum) of 2 µg/mL (≈ 4.5 µM), an MIC ([2]; Peptostreptococcus micros 3432) of 0.12 µg/mL (≈ 0.27 µM) and an MIC ([2]; Peptostreptococcus micros 3545) of 0.5 µg/mL (≈ 1.13 µM). The MIC [3] was 0.5 µg/mL (≈ 1.13 µM), the MIC ([4]; Bacteroides thetaiotaomicron 3399) was 0.25 µg/mL (≈ 0.563 µM) and the MIC ([4]; Bacteroides thetaiotaomicron 3496) was 16 µg/mL (≈ 36 µM). The MIC (Bacteroides vulgatus; Bacteroides vulgatus 3494) was 8 µg/mL (≈ 18 µM), the MIC (Bacteroides vulgatus; Phocaeicola vulgatus, Bacteroides vulgatus 3389, read-out: MIC) was 8 µg/mL (≈ 18 µM) and the MIC (Eikenella corrodens) was 0.12 µg/mL (≈ 0.27 µM). It also gave an MIC [5] of 0.5 µg/mL (≈ 1.13 µM), an MIC (Fusobacterium nucleatum) of 0.5 µg/mL (≈ 1.13 µM) and an MIC ([6]; Porphyromonas asaccharolytica 3552, read-out: MIC) of 4 µg/mL (≈ 9 µM). The MIC ([6]; Porphyromonas asaccharolytica 3557, read-out: MIC) was 2 µg/mL (≈ 4.5 µM), the MIC [7] was 16 µg/mL (≈ 36 µM) and the MIC ([7]; Prevotella melaninogenica 3443, read-out: MIC) was 1 µg/mL (≈ 2.25 µM). The MIC (Veillonella parvula) was 1 µg/mL (≈ 2.25 µM), the “MIC Range” value (P. granulosum) was 0.5 to 1 µg/mL and the “MIC Range” value (P. avidum) was 0.5 to 4 µg/mL. The “MIC Range” value (S. epidermidis; [9]) was 0.12 to 8 µg/mL, the “MIC Range” value (S. epidermidis; [10]) was 0.06 to 1 µg/mL and the MIC50 (S. epidermidis; [9]) was 0.5 µg/mL (≈ 1.13 µM). For the same compound, the MIC90 (S. epidermidis; [9]) was 1 µg/mL (≈ 2.25 µM), the MIC50 (S. epidermidis; [10]) was 0.12 µg/mL (≈ 0.27 µM) and the MIC90 (S. epidermidis; [10]) was 1 µg/mL (≈ 2.25 µM). For the same compound, the “MIC Range” value (S. pneumoniae; S. pneumoniae [tetR] (5 isolates)) was 4-4 μg/mL, the “MIC Range” value (S. pneumoniae; S. pneumoniae [tetS] (5 isolates)) was “≦0.06-0.125 μg/mL” and the MIC50 (S. pneumoniae; Streptococcus pneumoniae, S. pneumoniae [PSSP] (32 isolates), read-out: MIC50) was 0.06 µg/mL (≈ 0.135 µM). For the same compound, the MIC90 (S. pneumoniae; Streptococcus pneumoniae, S. pneumoniae [PSSP] (32 isolates), read-out: MIC90) was 0.12 µg/mL (≈ 0.27 µM), the MIC (S. pneumoniae; Streptococcus pneumoniae, S. pneumoniae strain PBS # 511, tetM) was 4 µg/mL (≈ 9 µM) and the “MIC Range” value (S. pyogenes; S. pyogenes (32 isolates)) was 0.06 to 8 µg/mL. For the same compound, the “MIC Range” value (S. pyogenes; S. pyogenes [tetR] (5 isolates)) was 4 to 8 µg/mL, the “MIC Range” value (S. pyogenes; S. pyogenes [tetS] (5 isolates)) was “≦0.06-0.125 μg/mL” and the MIC (S. pyogenes; Streptococcus pyogenes, S. pyogenes strain PBS # 330, tetO) was 8 µg/mL (≈ 18 µM). The MIC (S. pyogenes; Streptococcus pyogenes, S. pyogenes strain PBS # 792, tetM) was 4 µg/mL (≈ 9 µM), the MIC50 (S. pyogenes; Streptococcus pyogenes, S. pyogenes (32 isolates), read-out: MIC50) was 0.12 µg/mL (≈ 0.27 µM) and the MIC90 (S. pyogenes; Streptococcus pyogenes, S. pyogenes (32 isolates), read-out: MIC90) was 4 µg/mL (≈ 9 µM). For the same compound, the “MIC Range” value (S. agalactiae; S. agalactiae (31 isolates)) was 0.06 to 16 µg/mL, the “MIC Range” value (S. agalactiae; S. agalactiae [tetR] (7 isolates)) was 8 to 16 µg/mL and the “MIC Range” value (S. agalactiae; S. agalactiae [tetS] (3 isolates)) was 0.25-0.25 μg/mL. It also gave an MIC (S. agalactiae; Streptococcus agalactiae, S. agalactiae strain PBS # 316, tetO) of 8 µg/mL (≈ 18 µM), an MIC (S. agalactiae; Streptococcus agalactiae, S. agalactiae strain PBS # 897, tetM) of 8 µg/mL (≈ 18 µM) and an MIC50 (S. agalactiae; Streptococcus agalactiae, S. agalactiae (31 isolates), read-out: MIC50) of 8 µg/mL (≈ 18 µM). The MIC90 (S. agalactiae; Streptococcus agalactiae, S. agalactiae (31 isolates), read-out: MIC90) was 16 µg/mL (≈ 36 µM), the “MIC Range” value (S. haemolyticus) was 0.06 to 16 µg/mL and the MIC50 (S. haemolyticus; Staphylococcus haemolyticus, read-out: MIC50) was 0.5 µg/mL (≈ 1.13 µM). For the same compound, the MIC90 (S. haemolyticus; Staphylococcus haemolyticus, read-out: MIC90) was 16 µg/mL (≈ 36 µM), the “MIC Range” value [8] was 0.06 to 16 µg/mL and the MIC50 ([8]; read-out: MIC50) was 0.12 µg/mL (≈ 0.27 µM). The MIC90 ([8]; read-out: MIC90) was 8 µg/mL (≈ 18 µM), the “MIC Range” value (E. faecalis; E. faecalis [VSE] (31 isolates)) was 0.12 to 16 µg/mL and the “MIC Range” value (E. faecalis; E. faecalis [tetR] (6 isolates)) was 2 to 16 µg/mL. The “MIC Range” value (E. faecalis; E. faecalis [tetS] (4 isolates)) was “≦0.06-0.125 μg/mL”, the MIC (E. faecalis; Enterococcus faecalis, E. faecalis strain PBS # 274, tetL) was 16 µg/mL (≈ 36 µM) and the MIC (E. faecalis; Enterococcus faecalis, E. faecalis strain PBS # 276, tetM) was 8 µg/mL (≈ 18 µM). It also gave an MIC (E. faecalis; Enterococcus faecalis, E. faecalis strain PBS # 949, tetS) of 2 µg/mL (≈ 4.5 µM), an MIC50 (E. faecalis; Enterococcus faecalis, E. faecalis [VSE] (31 isolates), read-out: MIC50) of 8 µg/mL (≈ 18 µM) and an MIC90 (E. faecalis; Enterococcus faecalis, E. faecalis [VSE] (31 isolates), read-out: MIC90) of 8 µg/mL (≈ 18 µM). The “MIC Range” value (E. faecium; E. faecium [VRE] (30 isolates)) was 0.06 to 16 µg/mL, the “MIC Range” value (E. faecium; E. faecium [VSE] (32 isolates)) was 0.06 to 32 µg/mL and the “MIC Range” value (E. faecium; E. faecium [tetR] (6 isolates)) was 4 to 16 µg/mL. For the same compound, the MIC (E. faecium; E. faecium strain PBS # 965, tetM) was 4 µg/mL (≈ 9 µM), the MIC (E. faecium; E. faecium strain PBS # 1323, tetK) was 4 µg/mL (≈ 9 µM) and the MIC (E. faecium; E. faecium strain PBS # 1324, tetO) was 4 µg/mL (≈ 9 µM). The MIC50 (E. faecium; E. faecium [VRE] (30 isolates)) was 1 µg/mL (≈ 2.25 µM), the MIC90 (E. faecium; E. faecium [VRE] (30 isolates)) was 8 µg/mL (≈ 18 µM) and the MIC50 (E. faecium; E. faecium [VSE] (32 isolates)) was 0.5 µg/mL (≈ 1.13 µM). For the same compound, the MIC90 (E. faecium; E. faecium [VSE] (32 isolates)) was 16 µg/mL (≈ 36 µM), the “MIC Range” value (E. coli) was 0.5 to 4 µg/mL and the “MIC Range” value (K. pneumoniae; K. pneumoniae [tetS] (7 isolates)) was 0.5 to 8 µg/mL. For the same compound, the MIC50 (K. pneumoniae; [11]) was 8 µg/mL (≈ 18 µM) and the MIC90 (K. pneumoniae; [11]) was greater than 32 µg/mL.
